From publication PMC3479967 (Evidence-based Complementary and Alternative Medicine : eCAM, 2012) come the findings set out here.

The term IC50 denotes the concentration that gives 50% inhibition. As usually defined, the Ki is the equilibrium dissociation constant of an inhibitor or competing ligand from its target.

Bounds are passed on as bounds.

Assay [1] addresses T1, UGT1A7 (Homo sapiens, UniProt Q9HAW7).
T1 sequence (Q9HAW7 26-530): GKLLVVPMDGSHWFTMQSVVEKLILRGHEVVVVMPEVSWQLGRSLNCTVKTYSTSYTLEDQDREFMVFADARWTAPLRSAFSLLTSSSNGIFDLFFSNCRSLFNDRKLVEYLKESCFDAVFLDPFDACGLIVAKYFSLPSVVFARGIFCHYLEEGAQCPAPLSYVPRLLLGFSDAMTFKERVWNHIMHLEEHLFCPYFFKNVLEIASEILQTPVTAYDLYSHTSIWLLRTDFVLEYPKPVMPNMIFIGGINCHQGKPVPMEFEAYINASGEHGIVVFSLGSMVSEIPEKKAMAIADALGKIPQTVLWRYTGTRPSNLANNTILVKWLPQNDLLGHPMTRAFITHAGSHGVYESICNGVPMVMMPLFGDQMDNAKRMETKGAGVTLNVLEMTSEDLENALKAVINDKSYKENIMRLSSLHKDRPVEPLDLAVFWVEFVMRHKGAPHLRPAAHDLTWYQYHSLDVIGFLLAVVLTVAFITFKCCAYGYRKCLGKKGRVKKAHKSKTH
Briefly: Inhibition of recombinant UGT1A7 activity (4-MU glucuronidation). As to the method:
(§1) A panel of recombinant human UGT supersomes (UGT1A1, UGT1A3, UGT1A4, UGT1A6, UGT1A7, UGT1A8, UGT1A9, UGT1A10, UGT2B4, UGT2B7, UGT2B15, and UGT2B17) expressed in baculovirus-infected insect cells were purchased from BD Gentest Corp. (Woburn, MA, USA).
(§2) 4-MU, a nonselective substrate of UGTs, was used as probe substrate for all UGTs except UGT1A4. Incubations with each individual enzyme were conducted using conditions previously described. There was a 5 min preincubation step at 37°C before the reaction was started by addition of UDPGA. The incubation mixtures were then centrifuged at 20,500 ×g for 15 min to obtain the supernatant. Aliquots (20 μL) were then analyzed by HPLC. The HPLC system (SHIMADZU, Kyoto, Japan) consisted of an SCL-10A system controller, two LC-10AT pumps, a SIL-10A auto injector, and a SPD-10AVP UV detector. Chromatographic separation was achieved using a Kromasil ODS column (4.6 × 150 mm I.D., 5 μm particle size) at a flow rate of 1 mL/min and UV detection at 316 nm. The mobile phase consisted of 10 mM KH2PO4, pH 2.7 (A) and acetonitrile (B). The following gradient was applied at a flow rate of 1 mL/min: 0–4 min 80% A and 20% B, 4.1–8 min 50% A and 50% B, 8.1–12 min, 30% A and 70% B. All experiments were performed in two independent experiments in duplicate.
A typical incubation mixture contained recombinant human UGTs, 5 mM MgCl2, 5 mM UDPGA, 50 μg/mg protein alamethicin, 50 mM Tris-HCl buffer (pH 7.4), and various probe substrates of UGTs in the absence or presence of different concentrations of inhibitors. […] The final concentration of DMSO in the incubation system was 1% (v/v). […] Known UGT inhibitors were used as positive controls: diclofenac for UGT1A1, UGT1A6, UGT1A7, and UGT1A9; androsterone for UGT1A3, UGT2B7, and UGT2B15, phenylbutazone for UGT1A8 and UGT1A10, and hecogenin for UGT1A4, respectively. There is no positive control reported available for UGT2B4 and UGT2B17. The negative controls are the incubation without UDPGA. […] The final concentration of DMSO in the incubation system was 1% (v/v). […] There was a 5 min preincubation step at 37°C before the reaction was started by the addition of UDPGA. Incubation times were 120 min for UGT1A1, UGT1A10, UGT2B4, UGT2B15, and UGT2B17, 75 min for UGT1A3, and 30 min for UGT1A4, UGT1A6, UGT1A7, UGT1A8, and UGT1A9. The reactions were quenched by adding 100 μL acetonitrile and internal standard. The incubation mixtures were then centrifuged at 20,500 ×g for 15 min to obtain the supernatant. An aliquot of the supernatant was used for HPLC analysis as described above. All experiments were performed in two independent experiments in duplicate.
Inhibition data from experiments were graphically represented by Dixon plots. K i values were calculated by nonlinear regression using the equations for competitive inhibition (1), noncompetitive inhibition (2), or mixed inhibition (3), [22] (1) v =VmaxS/Km(1+(I/Ki))+S, (2) v =VmaxS/(Km+S)(1+(I/Ki)), (3) v =VmaxS/Km (1+(I/Ki))+S(1+(I/αKi)), where v is the velocity of the reaction; S and I are the substrate and inhibitor concentrations, respectively; K i is the inhibition constant describing the affinity of the inhibitor for the enzyme; K m is the substrate concentration at half of the maximum velocity (V max) of the reaction; α reflects the effect of inhibitor on the affinity of the enzyme for its substrate. The type of inhibition was determined from the enzyme inhibition models. Goodness of fit to kinetic and inhibition models was assessed from the F statistic, r ^2 values, parameter standard error estimates, and 95% confidence intervals. Kinetic constants are reported as the mean value ± standard error of the parameter estimate.

Assay [2] deals with T2, UGT1A9 (Homo sapiens, UniProt O60656).
T2 sequence (O60656 26-530): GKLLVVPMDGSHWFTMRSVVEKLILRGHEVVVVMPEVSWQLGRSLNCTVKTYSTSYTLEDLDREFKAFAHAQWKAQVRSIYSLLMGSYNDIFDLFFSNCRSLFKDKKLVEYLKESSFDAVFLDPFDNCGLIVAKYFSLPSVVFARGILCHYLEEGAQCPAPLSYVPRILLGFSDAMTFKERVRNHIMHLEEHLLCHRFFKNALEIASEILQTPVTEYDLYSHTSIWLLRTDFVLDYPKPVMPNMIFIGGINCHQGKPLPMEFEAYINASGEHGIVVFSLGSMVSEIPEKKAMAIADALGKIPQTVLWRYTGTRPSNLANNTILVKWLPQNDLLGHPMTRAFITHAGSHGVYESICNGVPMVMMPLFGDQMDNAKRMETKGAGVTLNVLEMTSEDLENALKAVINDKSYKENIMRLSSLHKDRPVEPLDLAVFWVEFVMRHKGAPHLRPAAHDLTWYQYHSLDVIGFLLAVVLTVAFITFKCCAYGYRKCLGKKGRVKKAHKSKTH
Briefly: Inhibition of recombinant UGT1A9 activity (4-MU glucuronidation). As to the method: as §1, §2
A typical incubation mixture contained recombinant human UGTs, 5 mM MgCl2, 5 mM UDPGA, 50 μg/mg protein alamethicin, 50 mM Tris-HCl buffer (pH 7.4), and various probe substrates of UGTs in the absence or presence of different concentrations of inhibitors. […] The final concentration of DMSO in the incubation system was 1% (v/v). […]
Inhibition data from experiments were graphically represented by Dixon plots. K i values were calculated by nonlinear regression using the equations for competitive inhibition (1), noncompetitive inhibition (2), or mixed inhibition (3), [22] […] The type of inhibition was determined from the enzyme inhibition models. Goodness of fit to kinetic and inhibition models was assessed from the F statistic, r ^2 values, parameter standard error estimates, and 95% confidence intervals. […]

Consider `COc1ccc(-c2oc3c(CC=C(C)C)c(O)cc(O)c3c(=O)c2O)cc1` [Icaritin], for which, in assay [1], the 50% inhibitory concentration (IC50) stood at 0.3 µM and the inhibition constant (Ki) is 700 ± 200 nM. Further, in assay [1] (recombinant UGT1A7), the “Inhibition type against UGT1A7” value is recorded as “mixed”. Also, the “α of mixed inhibition against UGT1A7” value in assay [1] (recombinant UGT1A7, mixed inhibition model) came out at 2.7. For the same molecule, the IC50 in assay [2] is 1.5 ± 0.1 µM.
As for `COc1ccc(-c2oc3c(CC=C(C)C)c(O[C@@H]4O[C@H](CO)[C@@H](O)[C@H](O)[C@H]4O)cc(O)c3c(=O)c2O[C@@H]2O[C@@H](C)[C@H](O)[C@@H](O)[C@H]2O)cc1` [Icariin], the IC50 in assay [1] and in assay [2] was greater than 100 µM throughout.
`COc1ccc(-c2oc3c(CC=C(C)C)c(O[C@@H]4O[C@H](CO)[C@@H](O)[C@H](O)[C@H]4O)cc(O)c3c(=O)c2O)cc1` [Icariside I]: the IC50 in assay [1] and in assay [2] was greater than 100 µM each time.
